According to patent publication US10316017B2, “COT modulators and methods of use thereof” (Gilead Sciences, Inc., priority 2015, dated 2019):

Experiments:
[1] = biological target: T1, human Cot catalytic domain (30-397 amino acids) (Homo sapiens, UniProt P41279); assay: High Throughput Cot Biochemical Assay (KinEASE TR-FRET); conditions: Cot biochemical HTRF (KinEASE TR-FRET) assay; read-out: IC50 HTRF
T1 construct: Purified recombinant human Cot catalytic domain (30-397 amino acids) was purchased from Cama Biosciences; purchased Cama Biosciences (so in the source)
T1 sequence (P41279 30-397): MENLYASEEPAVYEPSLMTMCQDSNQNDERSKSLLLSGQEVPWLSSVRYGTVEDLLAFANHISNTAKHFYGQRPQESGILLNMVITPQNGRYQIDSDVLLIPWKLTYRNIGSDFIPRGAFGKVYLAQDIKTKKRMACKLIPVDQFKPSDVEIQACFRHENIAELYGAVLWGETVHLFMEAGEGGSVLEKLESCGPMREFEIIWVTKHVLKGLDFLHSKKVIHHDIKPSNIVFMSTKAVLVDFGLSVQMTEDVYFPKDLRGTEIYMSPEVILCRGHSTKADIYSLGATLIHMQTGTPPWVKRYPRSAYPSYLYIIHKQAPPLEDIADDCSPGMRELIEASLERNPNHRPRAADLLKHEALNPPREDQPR
How it was run: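 TR-FRET readout: Eu-labeled phospho-specific antibody binds XL665-tagged STK3 peptide after phosphorylation by Cot (aa 30-397, 5 nM). Conditions: 400 μM ATP, 1 μM peptide, MOPS pH 7.0 buffer with MgOAc, DTT, BSA, NP-40, glycerol; 0.1% DMSO.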

[2] = test system: TNFα production in LPS-stimulated human monocytes; assay: Cot Monocyte TNFα Cell Based Assay; conditions: Homo sapiens, Monocyte, TNFα in LPS-stimulated human monocytes; read-out: EC50 TNF
How it was run: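 TR-FRET read-out of total secreted TNFα, normalized as % control (unstimulated = 0%, LPS-stimulated = 100%). Cells (5,000/well) were exposed to compound 1 h at 37 °C, then to 50 pg/ml LPS for a further 4 h.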

Row | IC50 [1] | EC50 [2] | Structure (SMILES)
1 | > 10000 nM | > 10000 nM | CC[C@@H](Nc1c(C#N)cnc2c(Cl)cc(N[C@@H](c3c[nH]nn3)c3ccccc3Cl)cc12)c1ccccc1 [Example 532, 8-chloro-6-(((R)-(2-chlorophenyl)(1H-1,2,3-triazol-4-yl)methyl)amino)-4-(((R)-1-phenylpropyl)amino)quinoline-3-carbonitrile]
2 | 73 nM | 660 nM | CC[C@@H](Nc1c(C#N)cnc2c(Cl)cc(N[C@H](c3c[nH]nn3)c3ccccc3Cl)cc12)c1ccccc1 [Example 533, 8-chloro-6-(((S)-(2-chlorophenyl)(1H-1,2,3-triazol-4-yl)methyl)amino)-4-(((R)-1-phenylpropyl)amino) quinoline-3-carbonitrile]
3 | 57 nM | 3150 nM | N#Cc1cnc2c(Cl)cc(N[C@@H](c3ccccc3)c3cn(C4CCCC4)nn3)cc2c1Nc1ccc(Cl)c(Cl)c1F [Example 534, (S)-8-chloro-6-(((1-cyclopentyl-1H-1,2,3-triazol-4-yl)(phenyl)methyl)amino)-4-((3,4-dichloro-2-fluorophenyl)amino) quinoline-3-carbonitrile]
4 | 4 nM | 500 nM | N#Cc1cnc2c(Cl)cc(N[C@@H](c3ccccc3)c3cn([C@@H]4CCNC[C@H]4O)nn3)cc2c1Nc1cccc(Cl)c1 [Example 535, 8-chloro-4-((3-chlorophenyl)amino)-6-(((S)-(1-((3R,4R)-3-hydroxypiperidin-4-yl)-1H-1,2,3-triazol-4-yl)(phenyl)methyl)amino) quinoline-3-carbonitrile]
5 | 3 nM | 84 nM | CC[C@@H](Nc1c(C#N)cnc2c(Cl)cc(N[C@@H](c3ccccc3)c3cn(CCCN4CCCC4)nn3)cc12)c1ccccc1 [Example 536, 8-chloro-6-(((S)-phenyl (1-(3-(pyrrolidin-1-yl)propyl)-1H-1,2,3-triazol-4-yl)methyl)amino)-4-(((R)-1-phenylpropyl)amino)quinoline-3-carbonitrile]
6 | 17 nM | 458 nM | CC[C@@H](Nc1c(C#N)cnc2c(Cl)cc(N[C@@H](c3ccc(F)cc3)c3c[nH]nn3)cc12)c1ccccc1 [Example 537, 8-chloro-6-(((S)-(4-fluorophenyl)(1H-1,2,3-triazol-4-yl)methyl)amino)-4-(((R)-1-phenylpropyl)amino) quinoline-3-carbonitrile]
7 | 3 nM | 58 nM | CC[C@@H](Nc1c(C#N)cnc2c(Cl)cc(N[C@@H](c3ccc(F)cc3)c3cn(C4CCN(C(C)(C)C)CC4)nn3)cc12)c1ccccc1 [Example 538, 6-(((S)-(1-(1-(tert-butyl)piperidin-4-yl)-1H-1,2,3-triazol-4-yl)(4-fluorophenyl)methyl)amino)-8-chloro-4-(((R)-1-phenylpropyl)amino) quinoline-3-carbonitrile]
8 | 337 nM | 3070 nM | CC(C)(C)N1CCC(n2cc([C@@H](Nc3cc(Cl)c4ncc(C#N)c(N[C@H]5CCCOC5)c4c3)c3ccccc3)nn2)CC1 [Example 539, 6-(((S)-(1-(1-(tert-butyl)piperidin-4-yl)-1H-1,2,3-triazol-4-yl)(phenyl)methyl)amino)-8-chloro-4-(((S)-tetrahydro-2H-pyran-3-yl)amino)quinoline-3-carbonitrile]
9 | 404 nM | 5150 nM | CC(C)(C)N1CCC(n2cc([C@@H](Nc3cc(Cl)c4ncc(C#N)c(N[C@@H]5CCCOC5)c4c3)c3ccccc3)nn2)CC1 [Example 540, 6-(((S)-(1-(1-(tert-butyl)piperidin-4-yl)-1H-1,2,3-triazol-4-yl)(phenyl)methyl)amino)-8-chloro-4-(((R)-tetrahydro-2H-pyran-3-yl)amino) quinoline-3-carbonitrile]
10 | 7310 nM | > 10000 nM | CC(C)n1cc([C@@H](Nc2cc(Cl)c3ncc(C#N)c(NC4CCN(C)CC4)c3c2)c2ccccc2)nn1 [Example 541, (S)-8-chloro-6-(((1-isopropyl-1H-1,2,3-triazol-4-yl)(phenyl)methyl)amino)-4-((1-methylpiperidin-4-yl)amino)quinoline-3-carbonitrile]
11 | > 10000 nM | > 10000 nM | CC(C)n1cc([C@@H](Nc2cc(Cl)c3ncc(C#N)c(NCCCN(C)C)c3c2)c2ccccc2)nn1 [Example 542, (S)-8-chloro-4-((3-(dimethylamino)propyl)amino)-6-(((1-isopropyl-1H-1,2,3-triazol-4-yl)(phenyl)methyl)amino) quinoline-3-carbonitrile]
12 | 7 nM | 51 nM | CC(C)(C)CNc1c(C#N)cnc2c(Cl)cc(N[C@@H](c3ccccc3)c3cn(C4CCN(C(C)(C)C)CC4)nn3)cc12 [Example 543, (S)-6-(((1-(1-(tert-butyl)piperidin-4-yl)-1H-1,2,3-triazol-4-yl)(phenyl)methyl)amino)-8-chloro-4-(neopentylamino)quinoline-3-carbonitrile]
13 | 94 nM | 1190 nM | N#Cc1cnc2c(Cl)cc(N[C@@H](c3ccccc3)c3cn(CC4(N5CCCC5)COC4)nn3)cc2c1Nc1ccc(F)c(Cl)c1 [Example 544]
14 | 3 nM | 88 nM | N#Cc1cnc2c(Cl)cc(N[C@@H](c3ccccc3)c3cn(CCCN4CCCC4)nn3)cc2c1Nc1ccc(F)c(Cl)c1 [Example 545, (S)-8-chloro-4-((3-chloro-4-fluorophenyl)amino)-6-((phenyl (1-(3-(pyrrolidin-1-yl)propyl)-1H-1,2,3-triazol-4-yl)methyl)amino)quinoline-3-carbonitrile]
15 | 8 nM | 200 nM | N#Cc1cnc2c(Cl)cc(N[C@@H](c3ccccc3)c3cn(CCN4CCCC4)nn3)cc2c1Nc1ccc(F)c(Cl)c1 [Example 546, (S)-8-chloro-4-((3-chloro-4-fluorophenyl)amino)-6-((phenyl (1-(2-(pyrrolidin-1-yl)ethyl)-1H-1,2,3-triazol-4-yl)methyl)amino)quinoline-3-carbonitrile]
16 | 2 nM | 508 nM | CC(C)n1cc([C@@H](Nc2cc(Cl)c3ncc(C#N)c(Nc4ccc(F)c(Cl)c4)c3c2)c2cccc(N3CCCCC3=O)c2)nn1 [Example 547, (S)-8-chloro-4-((3-chloro-4-fluorophenyl)amino)-6-(((1-isopropyl-1H-1,2,3-triazol-4-yl) (3-(2-oxopiperidin-1-yl)phenyl)methyl)amino) quinoline-3-carbonitrile]
17 | 1 nM | 40 nM | CC(C)(C)N1CCC(n2cc([C@@H](Nc3cc(Cl)c4ncc(C#N)c(Nc5ccc(F)c(Cl)c5)c4c3)c3cccc(N4CCCCC4=O)c3)nn2)CC1 [Example 548, (S)-6-(((1-(1-(tert-butyl)piperidin-4-yl)-1H-1,2,3-triazol-4-yl)(3-(2-oxopiperidin-1-yl)phenyl)methyl)amino)-8-chloro-4-((3-chloro-4-fluorophenyl)amino)quinoline-3-carbonitrile]
18 | 3 nM | 650 nM | CC(C)n1cc([C@@H](Nc2cc(Cl)c3ncc(C#N)c(Nc4ccc(F)c(Cl)c4)c3c2)c2cccc(N3CCCC3=O)c2)nn1 [Example 549, (S)-8-chloro-4-((3-chloro-4-fluorophenyl)amino)-6-(((1-isopropyl-1H-1,2,3-triazol-4-yl) (3-(2-oxopyrrolidin-1-yl)phenyl)methyl)amino) quinoline-3-carbonitrile]
